Measured values taken from patent US9255257B2, “PmST1 mutants for chemoenzymatic synthesis of sialyl lewis X compounds” (THE REGENTS OF THE UNIVERSITY OF CALIFORNIA, priority 2011, dated 2016).

Columns and labels:
[1] = molecular target: Pasteurella multocida PmST1 mutant E271F of SEQ ID NO: 13 (E247F of Δ24PmST1, SEQ ID NO: 7) (Pasteurella multocida, UniProt Q15KI8, E271F); test: α2-3-sialyltransferase activity, LacβMU as acceptor; type: biochemical; details: apparent, acceptor, CMP-Neu5Ac 1 mM, Tris-HCl pH 8.5, 37° C.
Procedure: (§1) To obtain the apparent kinetic parameters of LacβMU as the acceptor for the α2-3-sialyltransferase activity, the kinetic assays were performed in duplicate in reaction mixtures of 10 μL containing Tris-HCl buffer (100 mM, pH 8.5), a fixed concentration of CMP-Neu5Ac (1 mM), different concentrations of LacβMU (0.2, 0.5, 1.0, 2.0, 5.0, and 9.0 mM) and the mutant proteins (2 μg mL^−1 of E271F, 2 μg mL^−1 of R313Y, and 1.6 μg mL^−1 of E271F/R313Y). All reactions were allowed to proceed at 37° C. for 5 min (E271F), 7 min (R313Y), and 10 min (E271F/R313Y). The apparent kinetic parameters were obtained by fitting the experimental data (the average values of duplicate assay results) into the Michaelis-Menten equation using Grafit 5.0.
(§2) To obtain the apparent kinetic parameters of CMP-Neu5Ac as the donor for the α2-3-sialyltransferase activity, the kinetic assays were performed in duplicate in reaction mixtures of 10 μL containing Tris-HCl buffer (100 mM, pH 8.5), a fixed concentration of LacβMU (1 mM), different concentrations of CMP-Neu5Ac (0.1, 0.2, 0.5, 1.0, 2.0, 5.0, 10.0 and 20.0 mM) and the mutant proteins (2 μg mL^−1 of E271F, 2 μg mL^−1 of R313Y, and 1.6 μg mL^−1 of E271F/R313Y). All reactions were allowed to proceed at 37° C. for 2 min (E271F), 7 min (R313Y), and 5 min (E271F/R313Y). The apparent kinetic parameters were obtained by fitting the experimental data (the average values of duplicate assay results) into the Michaelis-Menten equation using Grafit 5.0.
(§3) All the sialidase and α2-3-sialyltransferase assays were performed in an HPLC system. Reactions were stopped by adding 10 μL of ethanol. After necessary dilutions were performed to adjust the concentrations of the fluorescent-labeled compounds, the samples were then kept on ice until aliquots of 8 μL were injected and analyzed by a Shimadzu LC-6AD system equipped with a membrane on-line degasser, a temperature control unit, and a fluorescence detector (Shimadzu RF-10AXL). A reverse-phase Premier C18 column (250×4.6 mm i.d., 5 μm particle size, Shimadzu) protected with a C18 guard column cartridge was used. The mobile phase was 25% acetonitrile. The fluorescent compounds LacβMU and Neu5Acα2-3LacβMU were detected by excitation at 325 nm and emission at 372 nm.

[2] = molecular target: Pasteurella multocida PmST1 mutant R313Y of SEQ ID NO: 13 (R289Y of Δ24PmST1, SEQ ID NO: 9) (Pasteurella multocida, UniProt Q15KI8, R313Y); test: as above; type: biochemical; details: apparent, acceptor, CMP-Neu5Ac 1 mM, Tris-HCl pH 8.5, 37° C.
Procedure: as §1, §2, §3

[3] = molecular target: Pasteurella multocida PmST1 double mutant E271F/R313Y of SEQ ID NO: 13 (E247F/R289Y of Δ24PmST1, SEQ ID NO: 11) (Pasteurella multocida, UniProt Q15KI8, E271F/R313Y); test: as above; type: biochemical; details: apparent, acceptor, CMP-Neu5Ac 1 mM, Tris-HCl pH 8.5, 37° C.
Procedure: as §1, §2, §3

[4] = molecular target: T1, Pasteurella multocida PmST1 mutant M144H of SEQ ID NO: 13 (M120H of Δ24PmST1, SEQ ID NO: 5) (Pasteurella multocida, UniProt Q15KI8, M144H); test: as above; type: biochemical; details: apparent, acceptor, CMP-Neu5Ac 1 mM, Tris-HCl pH 8.5, 37° C.
Procedure: (§4) Site-directed mutagenesis, expression and purification of PmST1 mutants. Site-directed mutagenesis was performed using the QuikChange multi-site-directed mutagenesis kit from Stratagene according to the manufacturer's protocol. The primers used were 5′-[…]-3′ (SEQ ID NO:35) for M144D; 5′-[…]a[…] -3′ (SEQ ID NO:36) for M144H; 5′-[…]-3′ (SEQ ID NO:37) for A35D; and 5′-[…]-3′ (SEQ ID NO:38) for A35H. The expression and purification of the mutants were performed as previously described for the WT PmST1 .
(§5) Kinetics of the α2-3-sialyltransferase activity of PmST1 mutants by HPLC analysis. With LacβMU as the acceptor substrate, the reactions were performed in duplicate at 37° C. for 10 min (M144D) or 4 min (M144H) in a reaction mixture (10 μL) containing Tris-HCl (100 mM, pH 8.5), an enzyme (5 μg mL^−1), and different concentrations (0.2, 0.5, 1.0, 2.0, and 5.0 mM) of LacβMU with a fixed concentration (1 mM) of CMP-Neu5Ac or different concentrations (0.2, 0.5, 1.0, 2.0, 5.0, and 10.0 mM) of CMP-Neu5Ac with a fixed concentration (1 mM) of LacβMU. With Le^xβMU as the acceptor substrate, the reactions were carried out in duplicate at 37° C. for 9 min (M144D) or 10 min (M144H) in a reaction mixture (10 μL) containing CAPSO (100 mM, pH 9.5), an enzyme (M144D, 39 μg mL^−1 or M144H, 5 μg mL^−), and various concentrations of Le^xβMU (1.0, 5.0, 10.0, 15.0, 25.0, and 35.0 mM) with a fixed concentration (1 mM) of CMP-Neu5Ac or various concentrations (0.2, 0.5, 1.0, 2.0, 5.0, 10.0, 20.0, and 40.0 mM) of CMP-Neu5Ac with a fixed concentration (1 mM) of Le^xβMU. Reactions were stopped by adding 10 μL of pre-chilled ethanol. The mixtures were incubated on ice for 30 min and centrifuged at 13,000 rpm for 5 min. The supernatants were diluted with 25% acetonitrile and kept on ice until aliquots of 8 μL were injected and analyzed by the Shimadzu LC-6AD system equipped with a membrane on-line degasser, a temperature control unit, and a fluorescence detector (Shimadzu RF-10AXL). A reverse-phase Premier C18 column (250×4.6 mm i.d., 5 μm particle size, Shimadzu) protected with a C18 guard column cartridge was used. The mobile phase was 25% acetonitrile. The fluorophore (MU)-labeled compounds were detected by excitation at 325 nm and emission at 372 nm. The apparent kinetic parameters were obtained by fitting the experimental data (the average values of duplicate assay results) into the Michaelis-Menten equation using Grafit 5.0.

[5] = molecular target: T2, Pasteurella multocida PmST1 mutant M144D of SEQ ID NO: 13 (M120D of Δ24PmST1, SEQ ID NO: 3) (Pasteurella multocida, UniProt Q15KI8, M144D); test: as above; type: biochemical; details: apparent, acceptor, CMP-Neu5Ac 1 mM, Tris-HCl pH 8.5, 37° C.
Procedure: as §4, §5

[6] = molecular target: Pasteurella multocida α2-3-sialyltransferase 1 (PmST1), wild type (WT), SEQ ID NO: 13 (Pasteurella multocida, UniProt Q15KI8); details: apparent, acceptor, read-out: Km for LacβMU; cited from earlier work
[7] = molecular target: T1, Pasteurella multocida PmST1 mutant M144H of SEQ ID NO: 13 (M120H of Δ24PmST1, SEQ ID NO: 5); test: α2-3-sialyltransferase activity, Le^xβMU as acceptor; type: biochemical; details: apparent, acceptor, CMP-Neu5Ac 1 mM, CAPSO pH 9.5, 37° C.
Procedure: as §4, §5

[8] = molecular target: T2, Pasteurella multocida PmST1 mutant M144D of SEQ ID NO: 13 (M120D of Δ24PmST1, SEQ ID NO: 3); test: as above; type: biochemical; details: apparent, acceptor, CMP-Neu5Ac 1 mM, CAPSO pH 9.5, 37° C.
Procedure: as §4, §5

[9] = test system: CC(=O)N[C@H]1[C@H]([C@H](O)[C@H](O)CO)O[C@@](O[C@H]2[C@@H](O)[C@@H](CO)O[C@@H](O[C@H]3[C@H](O)[C@@H](O)[C@H](Oc4ccc5c(C)cc(=O)oc5c4)O[C@@H]3CO)[C@@H]2O)(C(=O)O)C[C@@H]1O; test: α2-3-sialidase activity, Neu5Acα2-3LacβMU as substrate; type: biochemical, Pasteurella multocida; details: other: apparent, D141A, MES pH 5.5, 37° C., 60 min
Procedure: Kinetic Assays. […] The apparent kinetic parameters were obtained by fitting the experimental data (the average values of duplicate assay results) into the Michaelis-Menten equation using Grafit 5.0.
as §3

[10] = test system: CC(=O)N[C@H]1[C@H]([C@H](O)[C@H](O)CO)O[C@](OP(=O)(O)OC[C@H]2O[C@@H](n3ccc(N)nc3=O)[C@H](O)[C@@H]2O)(C(=O)O)C[C@@H]1O; test: purified protein, by the assay type; details: other: apparent, donor hydrolysis, D141A, Tris-HCl pH 8.5, 37° C., 40 min
Procedure: The reactions were stopped by adding 10 μL of pre-chilled ethanol. The mixtures were incubated on ice for 30 min and centrifuged at 13,000 rpm for 5 min. The supernatants were diluted with borate buffer (25 mM, pH 9.5) and aliquotes of 5 μL each were injected to a Beckman Coulter P/ACE™ MDQ Capillary Electrophoresis system equipped with a capillary (60 cm×75 μm i.d.) and monitored at 254 nm. The apparent kinetic parameters were obtained by fitting the experimental data (the average values of duplicate assay results) into the Michaelis-Menten equation using Grafit 5.0.

Cc1cc(=O)oc2cc(O[C@@H]3O[C@H](CO)[C@@H](O[C@@H]4O[C@H](CO)[C@H](O)[C@H](O)[C@H]4O)[C@H](O)[C@H]3O)ccc12 [LacβMU, 4-methylumbelliferyl β-lactoside]
kcat (LacβMU) [1]: 28 ± 1 s⁻¹ | kcat (LacβMU) [2]: 19 ± 1 s⁻¹ | kcat (LacβMU) [3]: 17 ± 1 s⁻¹ | kcat (LacβMU) [4]: 21 ± 1 s⁻¹ | kcat (LacβMU) [5]: 22 ± 1 s⁻¹ | Km [6]: 1400 µM

CC(=O)N[C@H]1[C@H](Oc2ccc3c(C)cc(=O)oc3c2)O[C@H](CO)[C@@H](O[C@@H]2O[C@H](CO)[C@H](O)[C@H](O)[C@H]2O)[C@@H]1O[C@@H]1O[C@@H](C)[C@@H](O)[C@@H](O)[C@@H]1O [Le^xβMU, 4-methylumbelliferyl β-Le^x]
kcat (Le^xβMU) [7]: 8.4 ± 0.3 s⁻¹ | kcat (Le^xβMU) [8]: 4.0 ± 0.2 s⁻¹

Pasteurella multocida PmST1 mutant D141A (Pasteurella multocida; D141A)
Km [9]: 15000 ± 1000 µM | Km [10]: 1400 ± 200 µM
